Patent publication US20160046618A1, “Cyclopropyl Fused Thiazin-2-Amine Compounds as Beta-Secretase Inhibitors and Methods of Use” (AMGEN INC., priority 2014, published 2016)

Assays:
human recombinant BACE2 = human recombinant BACE2 (Homo sapiens (Human), UniProt Q9Y5Z0); assay: In vitro enzymatic BACE2 FRET assay; assay type: biochemical; conditions: read-out: IC50 IP (μM) BACE2 enzyme
In short: (§1)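 Tris addition raises the pH to neutral to stop the reaction before fluorescence is measured at 590 nm emission with 488 nm excitation.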

Recombinant Cat D = Recombinant Cat D (Homo sapiens (Human), UniProt P07339); assay: In vitro enzymatic Cathepsin D (Cat D) FRET assay; assay type: biochemical; conditions: read-out: IC50 IP (μM) CatD
Chain of Recombinant Cat D (P07339 65-412): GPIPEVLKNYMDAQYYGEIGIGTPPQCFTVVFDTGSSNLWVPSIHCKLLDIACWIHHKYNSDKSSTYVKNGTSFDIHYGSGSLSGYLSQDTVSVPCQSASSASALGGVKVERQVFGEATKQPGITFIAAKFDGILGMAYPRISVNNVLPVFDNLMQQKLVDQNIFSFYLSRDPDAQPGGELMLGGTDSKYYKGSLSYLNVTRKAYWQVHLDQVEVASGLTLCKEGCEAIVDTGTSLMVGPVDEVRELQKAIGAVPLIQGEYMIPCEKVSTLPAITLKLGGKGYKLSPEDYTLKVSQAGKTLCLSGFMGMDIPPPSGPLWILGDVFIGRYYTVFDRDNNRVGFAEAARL
In short: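 CHO-expressed enzyme; buffer 0.05 M citrate pH 3.5, 5 mM CHAPS, 10% DMSO final. Start with FRET substrate 20 nM, 1 h incubation, Tris stop (pH to neutral), fluorescence ex 500 nm/em 580 nm.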

[1] = system: Aβ40 in conditioned medium of cells stably expressing Amyloid Precursor Protein (APP); assay: In vitro BACE-1 cell-based assay (Aβ40 sandwich ELISA); conditions: read-out: IC50 IP (μM) BACE1 cell
In short: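 Read-out: time-resolved fluorescence (Streptavidin-Europium) of Aβ40 captured by pAb40 and detected with biotinylated 6E10 from supernatants of APP-stable cells. Cells were exposed to compound for 24 h, 10-point dose response, top dose 100 μM or 10 μM, 0.1% DMSO. IC50 fitted to percent of control.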

human recombinant BACE1 = human recombinant BACE1 (Homo sapiens (Human), UniProt P56817); assay: In vitro enzymatic BACE1 FRET assay; assay type: biochemical; conditions: read-out: IC50 IP (μM) BACE1 enzyme
Chain of human recombinant BACE1 (P56817 46-501): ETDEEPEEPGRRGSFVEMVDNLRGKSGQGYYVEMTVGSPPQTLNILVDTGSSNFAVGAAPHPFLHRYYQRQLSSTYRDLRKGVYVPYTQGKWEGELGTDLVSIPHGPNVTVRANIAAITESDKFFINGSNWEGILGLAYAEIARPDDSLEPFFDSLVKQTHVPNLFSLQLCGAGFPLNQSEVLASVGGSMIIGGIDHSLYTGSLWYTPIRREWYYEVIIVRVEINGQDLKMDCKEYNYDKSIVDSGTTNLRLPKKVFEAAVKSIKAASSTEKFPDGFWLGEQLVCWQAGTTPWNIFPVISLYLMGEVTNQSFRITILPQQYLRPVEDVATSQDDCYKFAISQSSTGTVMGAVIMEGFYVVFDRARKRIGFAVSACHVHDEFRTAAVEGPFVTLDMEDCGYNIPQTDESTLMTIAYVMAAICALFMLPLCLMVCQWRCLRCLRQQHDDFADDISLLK
In short: as §1

Chain of human recombinant BACE2 (Q9Y5Z0 63-518): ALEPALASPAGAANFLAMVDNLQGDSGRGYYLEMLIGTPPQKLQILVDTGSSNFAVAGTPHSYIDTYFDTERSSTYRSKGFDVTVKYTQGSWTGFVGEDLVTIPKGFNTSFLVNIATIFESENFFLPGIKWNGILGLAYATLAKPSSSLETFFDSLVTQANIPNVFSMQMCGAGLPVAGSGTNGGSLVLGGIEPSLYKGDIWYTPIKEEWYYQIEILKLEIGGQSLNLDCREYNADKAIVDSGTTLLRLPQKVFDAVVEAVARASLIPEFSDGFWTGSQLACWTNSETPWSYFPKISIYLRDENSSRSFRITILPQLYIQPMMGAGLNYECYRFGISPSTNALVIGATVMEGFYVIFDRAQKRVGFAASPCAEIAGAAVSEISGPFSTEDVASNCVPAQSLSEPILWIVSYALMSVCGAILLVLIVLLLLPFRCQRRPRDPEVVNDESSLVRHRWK

Structure (SMILES) | IC50 (human recombinant BACE2) [µM] | IC50 (Recombinant Cat D) [µM] | IC50 [1] [µM] | IC50 (human recombinant BACE1) [µM]
C[C@]1(c2cc(NC(=O)c3cnc(OCC(F)(F)F)cn3)ccc2F)N=C(N)S[C@@]2(CF)C[C@H]21 [Example 826, N-(3-((1S,5S,6S)-3-amino-1-(fluoromethyl)-5-methyl-2-thia-4-azabicyclo[4.1.0]hept-3-en-5-yl)-4-fluorophenyl)-5-(2,2,2-trifluoroethoxy)-2-pyrazinecarboxamide] | 0.0778 | 395 | 0.00331 | 0.00174
C#CCOc1cnc(C(=O)Nc2ccc(F)c([C@@]3(C)N=C(N)S[C@@]4(CF)C[C@H]43)c2)c(C)n1 [Example 829, N-(3-((1S,5S,6S)-3-amino-1-(fluoromethyl)-5-methyl-2-thia-4-azabicyclo[4.1.0]hept-3-en-5-yl)-4-fluorophenyl)-3-methyl-5-(2-propyn-1-yloxy)-2-pyrazinecarboxamide] | 0.00801 | 354 | 0.0019 | 0.000776
C#CCOc1cnc(C(=O)Nc2ccc(F)c([C@@]3(C)N=C(N)S[C@@]4(C(F)F)C[C@@H]34)c2)c(C)n1 [Example 830, N-(3-((1S,5S,6S)-3-amino-1-(difluoromethyl)-5-methyl-2-thia-4-azabicyclo[4.1.0]hept-3-en-5-yl)-4-fluorophenyl)-3-methyl-5-(2-propyn-1-yloxy)-2-pyrazinecarboxamide] | 0.0101 | 121 | 0.00221 | 0.000566
C#CCOc1cnc(C(=O)Nc2ccc(F)c([C@@]3(C)N=C(N)S[C@@]4(COC)C[C@H]43)c2)c(C)n1 [Example 832, N-(3-((1S,5S,6S)-3-amino-1-(methoxymethyl)-5-methyl-2-thia-4-azabicyclo[4.1.0]hept-3-en-5-yl)-4-fluorophenyl)-3-methyl-5-(2-propyn-1-yloxy)-2-pyrazinecarboxamide] | 0.013 | 778 | 0.00213 | 0.00299
COC[C@]12C[C@H]1[C@@](C)(c1cc(NC(=O)c3ccc(Cl)cn3)ccc1F)N=C(N)S2 [Example 833, N-(3-((1S,5S,6S)-3-amino-1-(methoxymethyl)-5-methyl-2-thia-4-azabicyclo[4.1.0]hept-3-en-5-yl)-4-fluorophenyl)-5-chloro-2-pyridinecarboxamide] | 0.0061 | > 400 | 0.0137 | 0.0041
COC[C@]12C[C@H]1[C@@](C)(c1cc(NC(=O)c3ncc(OCc4ncco4)nc3C)ccc1F)N=C(N)S2 [Example 835, N-(3-((1S,5S,6S)-3-amino-1-(methoxymethyl)-5-methyl-2-thia-4-azabicyclo[4.1.0]hept-3-en-5-yl)-4-fluorophenyl)-3-methyl-5-(1,3-oxazol-2-ylmethoxy)-2-pyrazinecarboxamide] | 0.0249 | > 400 | 0.00392 | 0.00305
Cc1nc(OCc2ncco2)cnc1C(=O)Nc1ccc(F)c([C@@]2(C)N=C(N)S[C@@]3(C(F)F)C[C@@H]23)c1 [Example 836, N-(3-((1S,5S,6S)-3-amino-1-(difluoromethyl)-5-methyl-2-thia-4-azabicyclo[4.1.0]hept-3-en-5-yl)-4-fluorophenyl)-3-methyl-5-(1,3-oxazol-2-ylmethoxy)-2-pyrazinecarboxamide] | 0.0362 | > 400 | 0.00389 | 0.00209
Cc1nc(OCc2ncco2)cnc1C(=O)Nc1ccc(F)c([C@@]2(C)N=C(N)S[C@@]3(CF)C[C@H]32)c1 [Example 837, N-(3-((1S,5S,6S)-3-amino-1-(fluoromethyl)-5-methyl-2-thia-4-azabicyclo[4.1.0]hept-3-en-5-yl)-4-fluorophenyl)-3-methyl-5-(1,3-oxazol-2-ylmethoxy)-2-pyrazinecarboxamide] | 0.0259 | 1070 | 0.00325 | 0.00253
COC[C@]12C[C@H]1[C@@](C)(c1cc(Nc3ncnc4cc(Cl)cnc34)cnc1F)N=C(N)S2 [Example 844, (1S,5S,6S)-5-(5-((7-chloropyrido[3,2-d]pyrimidin-4-yl)amino)-2-fluoropyridin-3-yl)-1-(methoxymethyl)-5-methyl-2-thia-4-azabicyclo[4.1.0]hept-3-en-3-amine] | 0.0108 | 1780 | 0.0145 | 0.0219
C#CCOc1cnc(C(=O)Nc2cnc(F)c([C@@]3(C)N=C(N)S[C@@]4(COC)C[C@H]43)c2)c(C)n1 [Example 845, N-(5-((1S,5S,6S)-3-amino-1-(methoxymethyl)-5-methyl-2-thia-4-azabicyclo[4.1.0]hept-3-en-5-yl)-6-fluoro-3-pyridinyl)-3-methyl-5-(2-propyn-1-yloxy)-2-pyrazinecarboxamide] | 0.0257 | 1710 | 0.00473 | 0.0026
COC[C@]12C[C@H]1[C@@](C)(c1cc(Nc3ncnc4cc(C#N)cnc34)cnc1F)N=C(N)S2 [Example 846, 4-((5-((1S,5S,6S)-3-amino-1-(methoxymethyl)-5-methyl-2-thia-4-azabicyclo[4.1.0]hept-3-en-5-yl)-6-fluoro-3-pyridinyl)amino)pyrido[3,2-d]pyrimidine-7-carbonitrile] | 0.0494 | > 400 | 0.0111 | 0.0282
COC[C@]12C[C@H]1[C@@](C)(c1cc(Nc3nccc4cc(C#N)cnc34)cnc1F)N=C(N)S2 [Example 847, 8-((5-((1S,5S,6S)-3-amino-1-(methoxymethyl)-5-methyl-2-thia-4-azabicyclo[4.1.0]hept-3-en-5-yl)-6-fluoro-3-pyridinyl)amino)-1,7-naphthyridine-3-carbonitrile] | 0.00955 | 1910 | 0.00675 | 0.0113
C#CCOc1cnc2c(Nc3cnc(F)c([C@@]4(C)N=C(N)S[C@@]5(COC)C[C@H]54)c3)nccc2n1 [Example 848, N-(5-((1S,5S,6S)-3-amino-1-(methoxymethyl)-5-methyl-2-thia-4-azabicyclo[4.1.0]hept-3-en-5-yl)-6-fluoro-3-pyridinyl)-2-(2-propyn-1-yloxy)pyrido[3,4-b]pyrazin-5-amine] | 0.0335 | 773 | 0.00134 | 0.00136
COC[C@]12C[C@H]1[C@@](C)(c1cc(Nc3nccc4nc(OCc5ncco5)cnc34)cnc1F)N=C(N)S2 [Example 849, N-(5-((1S,5S,6S)-3-amino-1-(methoxymethyl)-5-methyl-2-thia-4-azabicyclo[4.1.0]hept-3-en-5-yl)-6-fluoro-3-pyridinyl)-2-(1,3-oxazol-2-ylmethoxy)pyrido[3,4-b]pyrazin-5-amine] | 0.0463 | 1530 | 0.0017 | 0.00343
[2H]C([2H])([2H])OC[C@]12C[C@H]1[C@@](C)(c1cc(NC(=O)c3ncc(OCC#C)nc3C)cnc1F)N=C(N)S2 [Example 850, N-(5-((1S,5S,6S)-3-amino-5-methyl-1-(((~2~H_3_)methyloxy)methyl)-2-thia-4-azabicyclo[4.1.0]hept-3-en-5-yl)-6-fluoro-3-pyridinyl)-3-methyl-5-(2-propyn-1-yloxy)-2-pyrazinecarboxamide] | 0.00886 | 1150 | 0.00207 | 0.00121
[2H]C([2H])([2H])OC[C@]12C[C@H]1[C@@](C)(c1cc(NC(=O)c3cnc(OCC#C)cn3)cnc1F)N=C(N)S2 [Example 851, N-(5-((1S,5S,6S)-3-amino-5-methyl-1-(((~2~H_3_)methyloxy)methyl)-2-thia-4-azabicyclo[4.1.0]hept-3-en-5-yl)-6-fluoro-3-pyridinyl)-5-(2-propyn-1-yloxy)-2-pyrazinecarboxamide] | 0.0184 | 468 | 0.000624 | 0.000574
[2H]C([2H])([2H])OC[C@]12C[C@H]1[C@@](C)(c1cc(Nc3ncnc4cc(Cl)cnc34)cnc1F)N=C(N)S2 [Example 852, N-(5-((1S,5S,6S)-3-amino-5-methyl-1-(((~2~H_3_)methyloxy)methyl)-2-thia-4-azabicyclo[4.1.0]hept-3-en-5yl)-6-fluoro-3-pyridinyl)-7-chloropyrido[3,2-d]pyrimidin-4-amine] | 0.00758 | 1680 | 0.0101 | 0.0127
[2H]C([2H])([2H])OC[C@]12C[C@H]1[C@@](C)(c1cc(Nc3nccc4nc(OCC#C)cnc34)cnc1F)N=C(N)S2 [Example 853, N-(5-((1S,5S,6S)-3-amino-5-methyl-1-(((~2~H_3_)methyloxy)methyl)-2-thia-4-azabicyclo[4.1.0]hept-3-en-5-yl)-6-fluoro-3-pyridinyl)-2-(2-propyn-1-yloxy)pyrido[3,4-b]pyrazin-5-amine] | 0.0244 | 791 | 0.000961 | 0.000878
[2H]C([2H])([2H])OC[C@]12C[C@H]1[C@@](C)(c1cc(Nc3nccc4nc(OC([2H])([2H])C#C)cnc34)cnc1F)N=C(N)S2 [Example 854, N-(5-((1S,5S,6S)-3-amino-5-methyl-1-(((~2~H_3_)methyloxy)methyl)-2-thia-4-azabicyclo[4.1.0]hept-3-en-5-yl)-6-fluoro-3-pyridinyl)-2-((1,1-~2~H_2_)-2-propyn-1-yloxy)pyrido[3,4-b]pyrazin-5-amine] | 0.0383 | 1240 | 0.00134 | 0.00144
